For 29 molecules, IC50 results are on record in patent publication US20150246902A1, “SUBSTITUED BENZOFURAN COMPOUNDS AND METHODS OF USE THEREOF FOR THE TREATMENT OF VIRAL DISEASES” (priority 2011, published 2015).

The structures appear in SMILES notation.

One test deals with HCV replicon genotype 1a. Nature of the test: microbe, parasite or virus in culture. The class given is cell-based. The note with it: Hepatitis C virus, 96 h, HCV genotype 1a replicon cells, 96 hours incubation, NS3/4A ELISA readout.
Another test has as its system HCV replicon genotype 1b. Briefly: microbe, parasite or virus in culture. The class given is cell-based. The note with it: Hepatitis C virus, 96 h, HCV genotype 1b replicon cells, 96 hours incubation, NS3/4A ELISA readout.

In the case of `CNC(=O)c1c(-c2ccc(F)cc2)oc2cc(N(C)S(C)(=O)=O)c(-c3ccc4oc(Cc5ccc(F)cc5)nc4n3)cc12` [Compound 84, 5-(2-(4-fluorobenzyl)oxazolo[4,5-b]pyridin-5-yl)-2-(4-fluorophenyl)-N-methyl-6-(N-methylmethylsulfonamido)benzofuran-3-carboxamide], the half-maximal inhibitory concentration (IC50) is 53.7 nM in the test on HCV replicon genotype 1a and 8.6 nM in the test with HCV replicon genotype 1b.
As to `CNC(=O)c1c(-c2ccc(F)cc2)oc2cc(N(C)S(C)(=O)=O)c(-c3cccc4nc(-c5ccccc5)oc34)cc12` [Compound 85], the concentration for half-maximal inhibition (IC50) with HCV replicon genotype 1a was found to be 460 nM; in the test with HCV replicon genotype 1b, 235 nM.
For the molecule `CNC(=O)c1c(-c2ccc(F)cc2)oc2cc(N(C)S(C)(=O)=O)c(-c3cccc4nc(-c5ccc(F)cc5)oc34)cc12` [Compound 86], the IC50 turned out to be 714 nM in the test with HCV replicon genotype 1a and 304 nM in the test on HCV replicon genotype 1b.
Taken in the same sequence, the figures for `CNC(=O)c1c(-c2ccc(F)cc2)oc2cc(N(C)S(C)(=O)=O)c(-c3ccc4oc(-c5ccc(F)cc5)nc4c3)cc12` [Compound 87] were 51.5 nM and 10.8 nM.
On to `CNC(=O)c1c(-c2ccc(F)cc2)oc2cc(N(C)S(C)(=O)=O)c(-c3ccc4nc(-c5ccccc5)cn4c3)cc12` [Compound 88, 2-(4-fluorophenyl)-N-methyl-6-(N-methylmethylsulfonamido)-5-(2-phenylimidazo[1,2-a]pyridin-6-yl)benzofuran-3-carboxamide], for which the IC50 in the test on HCV replicon genotype 1a was 50.1 nM; in the test on HCV replicon genotype 1b it was 7 nM.
As to `CNC(=O)c1c(-c2ccc(F)cc2)oc2cc(N(C)S(C)(=O)=O)c(-c3ccn4cc(-c5ccccc5)nc4c3)cc12` [Compound 89], the results for the concentration for half-maximal inhibition (IC50) with HCV replicon genotype 1a and in the test with HCV replicon genotype 1b were 7 nM and 2.7 nM, respectively.
As for `CNC(=O)c1c(-c2ccc(F)cc2)oc2cc(N(C)S(C)(=O)=O)c(-c3cn4ccnc4cn3)cc12` [Compound 90, 2-(4-fluorophenyl)-5-(imidazo[1,2-a]pyrazin-6-yl)-N-methyl-6-(N-methylmethylsulfonamido)benzofuran-3-carboxamide], the half-maximal inhibitory concentration (IC50) in the test with HCV replicon genotype 1a was 2180 nM; with HCV replicon genotype 1b, 120 nM.
Take `CNC(=O)c1c(-c2ccc(F)cc2)oc2cc(N(C)S(C)(=O)=O)c(-c3cn4c(-c5ccc(F)cc5)cnc4cn3)cc12` [Compound 91, 2-(4-fluorophenyl)-5-(3-(4-fluorophenyl)imidazo[1,2-a]pyrazin-6-yl)-N-methyl-6-(N-methylmethylsulfonamido)benzofuran-3-carboxamide]: the IC50 in the test on HCV replicon genotype 1a is 48.2 nM; with HCV replicon genotype 1b, 8.1 nM.
Regarding `CNC(=O)c1c(-c2ccc(F)cc2)oc2cc(N(C)S(C)(=O)=O)c(-c3cn4c(-c5ccc(C(F)(F)F)cc5)cnc4cn3)cc12` [Compound 92], the concentration for half-maximal inhibition (IC50) in the test with HCV replicon genotype 1a turned out to be 12.9 nM; with HCV replicon genotype 1b, 5.1 nM.
In the case of `CNC(=O)c1c(-c2ccc(F)cc2)oc2cc(N(C)S(C)(=O)=O)c(-c3cn4c(-c5ccc(Cl)cc5)cnc4cn3)cc12` [Compound 93], the IC50 stood at 47.9 nM in the test on HCV replicon genotype 1a and 7.9 nM in the test with HCV replicon genotype 1b.
As for `CNC(=O)c1c(-c2ccc(F)cc2)oc2cc(N(C)S(C)(=O)=O)c(-c3ccc4ncc(-c5ccc(C(F)(F)F)cc5)n4n3)cc12` [Compound 94, 2-(4-fluorophenyl)-N-methyl-6-(N-methylmethylsulfonamido)-5-(3-(4-(trifluoromethyl)phenyl)imidazo[1,2-b]pyridazin-6-yl)benzofuran-3-carboxamide], the half-maximal inhibitory concentration (IC50) was determined as 75.7 nM with HCV replicon genotype 1a and 12.3 nM in the test with HCV replicon genotype 1b.
The matching figures for `CNC(=O)c1c(-c2ccc(F)cc2)oc2cc(N(C)S(C)(=O)=O)c(-c3ccc4ncc(-c5ccc(F)cc5)n4n3)cc12` [Compound 95]: 85.9 nM and 44 nM.
As to `CNC(=O)c1c(-c2ccc(F)cc2)oc2cc(N(C)S(C)(=O)=O)c(-c3ccc4nnc(-c5ccc(C(F)(F)F)cc5)n4n3)cc12` [Compound 96, 2-(4-fluorophenyl)-N-methyl-6-(N-methylmethylsulfonamido)-5-(3-(4-(trifluoromethyl)phenyl)-[1,2,4]triazolo[4,3-b]pyridazin-6-yl)benzofuran-3-carboxamide], the IC50 with HCV replicon genotype 1a turned out to be 34.5 nM; in the test with HCV replicon genotype 1b it was 16.5 nM.
Take `CNC(=O)c1c(-c2ccc(F)cc2)oc2cc(N(C)S(C)(=O)=O)c(-c3cc(-c4nc5ncccc5o4)c4occc4c3)cc12` [Compound 97, 2-(4-fluorophenyl)-N-methyl-6-(N-methylmethylsulfonamido)-7′-(oxazolo[4,5-b]pyridin-2-yl)-[5,5′-bibenzofuran]-3-carboxamide]: the IC50 amounted to 2.7 nM with HCV replicon genotype 1a and 1.3 nM in the test on HCV replicon genotype 1b.
Regarding `CNC(=O)c1c(-c2ccc(F)cc2)oc2cc(N(C)S(C)(=O)=O)c(-c3cc(-c4nc5c(F)cccc5o4)c4occc4c3)cc12` [Compound 98], the IC50 in the test on HCV replicon genotype 1a was 3.7 nM; in the test on HCV replicon genotype 1b, 4.1 nM.
Consider `CNC(=O)c1c(-c2ccc(F)cc2)oc2cc(N(C)S(C)(=O)=O)c(-c3cc(-c4cc5ccccc5[nH]4)c4nc(C)cn4c3)cc12` [Compound 99, 5-(8-(1H-indol-2-yl)-2-methylimidazo[1,2-a]pyridin-6-yl)-2-(4-fluorophenyl)-N-methyl-6-(N-methylmethylsulfonamido)benzofuran-3-carboxamide], for which the IC50 worked out at 3.1 nM with HCV replicon genotype 1a and 5.2 nM in the test on HCV replicon genotype 1b.
In the case of `CNC(=O)c1c(-c2ccc(F)cc2)oc2cc(N(C)S(C)(=O)=O)c(-c3ccc4c(n3)nc(-c3ccccc3)n4C(C)(C)C)cc12` [Compound 100, 5-(1-(tert-butyl)-2-phenyl-1H-imidazo[4,5-b]pyridin-5-yl)-2-(4-fluorophenyl)-N-methyl-6-(N-methylmethylsulfonamido)benzofuran-3-carboxamide], the IC50 with HCV replicon genotype 1a is 297 nM; with HCV replicon genotype 1b, 73 nM.
For `CNC(=O)c1c(-c2ccc(F)cc2)oc2cc(N(C)S(C)(=O)=O)c(-c3ccc4[nH]c(-c5ccccc5)nc4n3)cc12` [Compound 101], the IC50 in the test on HCV replicon genotype 1a was 79.1 nM; with HCV replicon genotype 1b, 17 nM.
For `CNC(=O)c1c(-c2ccc(F)cc2)oc2cc(N(C)S(C)(=O)=O)c(-c3ccc4[nH]c(-c5ccccc5)nc4c3)cc12` [Compound 102], the figures for the IC50 in the test with HCV replicon genotype 1a and in the test with HCV replicon genotype 1b were 14.6 nM and 5.1 nM, respectively.
Consider `CNC(=O)c1c(-c2ccc(F)cc2)oc2cc(N(C)S(C)(=O)=O)c(-c3ccc4[nH]c(-c5ccccc5)cc4c3)cc12` [Compound 103, 2-(4-fluorophenyl)-N-methyl-6-(N-methylmethylsulfonamido)-5-(2-phenyl-1H-indol-5-yl)benzofuran-3-carboxamide], for which the IC50 in the test on HCV replicon genotype 1a turned out to be 1100 nM; in the test with HCV replicon genotype 1b it was 101 nM.
Turning to `CNC(=O)c1c(-c2ccc(F)cc2)oc2cc(N(C)S(C)(=O)=O)c(-c3ccc4c(ccn4C(=O)OC(C)(C)C)c3)cc12` [Compound 104, tert-butyl 5-(2-(4-fluorophenyl)-3-(methylcarbamoyl)-6-(N-methylmethylsulfonamido)benzofuran-5-yl)-1H-indole-1-carboxylate], the results for the IC50 with HCV replicon genotype 1a and in the test with HCV replicon genotype 1b were 179 nM and 18.9 nM, respectively.
Consider `CNC(=O)c1c(-c2ccc(F)cc2)oc2cc(N(C)S(C)(=O)=O)c(-c3ccc4cnn(-c5ccc(F)cc5)c4c3)cc12` [Compound 105, 2-(4-fluorophenyl)-5-(1-(4-fluorophenyl)-1H-indazol-6-yl)-N-methyl-6-(N-methylmethylsulfonamido)benzofuran-3-carboxamide], for which the half-maximal inhibitory concentration (IC50) was found to be 5.2 nM with HCV replicon genotype 1a and 2.8 nM with HCV replicon genotype 1b.
The matching figures for `CNC(=O)c1c(-c2ccc(F)cc2)oc2cc(N(C)S(C)(=O)=O)c(-c3ccc4cnn(-c5ccc(C(F)(F)F)cc5)c4c3)cc12` [Compound 107]: 8.3 nM and 6.1 nM.
On to `CNC(=O)c1c(-c2ccc(F)cc2)oc2cc(N(C)S(C)(=O)=O)c(-c3ccc4cnn(-c5ccc(C#N)cc5)c4c3)cc12` [Compound 108], for which the IC50 in the test with HCV replicon genotype 1a worked out at 27.6 nM; in the test with HCV replicon genotype 1b, 12.3 nM.
Regarding `CNC(=O)c1c(-c2ccc(F)cc2)oc2cc(N(C)S(C)(=O)=O)c(-c3cc(F)c4nc(C)n(-c5ccc(F)c(C(N)=O)c5)c4c3)cc12` [Compound 109, 5-(1-(3-carbamoyl-4-fluorophenyl)-4-fluoro-2-methyl-1H-benzo[d]imidazol-6-yl)-2-(4-fluorophenyl)-N-methyl-6-(N-methylmethylsulfonamido)benzofuran-3-carboxamide], the values for the half-inhibitory concentration (IC50) in the test on HCV replicon genotype 1a and in the test on HCV replicon genotype 1b were 110 nM and 21.1 nM, respectively.
Regarding `CNC(=O)c1c(-c2ccc(F)cc2)oc2cc(N(C)S(C)(=O)=O)c(-c3cc(F)c4ncn(-c5ccc(F)c(C(N)=O)c5)c4c3)cc12` [Compound 110], the IC50 in the test with HCV replicon genotype 1a was 111 nM; in the test on HCV replicon genotype 1b it was 13.8 nM.
Take `CNC(=O)c1c(-c2ccc(F)cc2)oc2cc(N(C)S(C)(=O)=O)c(-c3ccc4nnc(-c5ccc(F)cc5)n4c3)cc12` [Compound 111, 2-(4-fluorophenyl)-5-(3-(4-fluorophenyl)-[1,2,4]triazolo[4,3-a]pyridin-6-yl)-N-methyl-6-(N-methylmethylsulfonamido)benzofuran-3-carboxamide]: the IC50 with HCV replicon genotype 1a stood at 4.8 nM; with HCV replicon genotype 1b, 1.9 nM.
On to `CNC(=O)c1c(-c2ccc(F)cc2)oc2cc(N(C)S(C)(=O)=O)c(-c3ccc4ncc(-c5ccc(F)cc5)n4c3)cc12` [Compound 112, 2-(4-fluorophenyl)-5-(3-(4-fluorophenyl)imidazo[1,2-a]pyridin-6-yl)-N-methyl-6-(N-methylmethylsulfonamido)benzofuran-3-carboxamide], for which the half-maximal inhibitory concentration (IC50) in the test on HCV replicon genotype 1a was found to be 12.4 nM; in the test on HCV replicon genotype 1b it was 7.1 nM.
Regarding `CNC(=O)c1c(-c2ccc(F)cc2)oc2cc(N(C)S(C)(=O)=O)c(-c3ccc4nc(-c5ccc(F)cc5)cn4n3)cc12` [Compound 113], the 50% inhibitory concentration (IC50) with HCV replicon genotype 1a came out at 186 nM; with HCV replicon genotype 1b, 14.9 nM.
